# Columns and labels:
# Assay in all cases: microscale thermophoresis
# [1] = tested on: Dm-HS-1 TCT ∆ s.c. (DNA, aptamer, no side-chain at 37 (codon 7 TCT); others as HFNAP: fluorophenyl at 19; allylamine at 22, 25; alcohol at 28, 34, 49; phenol at 31, 46; cyclopentyl at 40; cyclopropyl at 43, 58; imidazole at 52, 55, 61) GAAAGCAGGACTGGAGATCGATTCTGGTGCTGTTGATCTCCGCCATTGTGCTCCTACCCTTCACAGACCGAACTAGAGCTT; details: 5 mM KCl, 1 mM MgCl2, 1 mM CaCl2 added to HBS-P+; HBS-P+ buffer, 25 °C
# [2] = tested on: Dm-LS-4 (DNA, aptamer, HFNAP: side-chain on 5' nucleobase of each coding trinucleotide, positions 19,22,25,...,61 (codon key Figure 1B)) GAAAGCAGGACTGGAGATCCGCGCCGCTTTTATCCCTAGTCCCTCTTACCCTACTTCCCCTTACAGACCGAACTAGAGCTT; details: 5 mM KCl, 1 mM MgCl2, 1 mM CaCl2 added; HBS-P+ buffer, 25 °C
# [3] = tested on: Dm-HS-5 (DNA, aptamer, HFNAP: side-chain on 5' nucleobase of each coding trinucleotide, positions 19,22,25,...,61 (codon key Figure 1B)) GAAAGCAGGACTGGAGATCGATTCTGGTGCTGTTGATCTCCGCCATTGTGCTCCTGCCCTTCACAGACCGAACTAGAGCTT; details: 5 mM KCl, 1 mM MgCl2, 1 mM CaCl2 added; HBS-P+ buffer, 25 °C
# [4] = tested on: Dm-CVAE-without-selection-2 (DNA, aptamer, HFNAP: side-chain on 5' nucleobase of each coding trinucleotide, positions 19,22,25,...,61 (codon key Figure 1B)) GAAAGCAGGACTGGAGATTCGTTACCGCTGTTGCTCTCTTCTCAGTTGTGCTCCTTTTCCCCCCAGACCGAACTAGAGCTT; details: 5 mM KCl, 1 mM MgCl2, 1 mM CaCl2 added; HBS-P+ buffer, 25 °C
# [5] = tested on: Dm-HS-2 (DNA, aptamer, HFNAP: side-chain on 5' nucleobase of each coding trinucleotide, positions 19,22,25,...,61 (codon key Figure 1B)) GAAAGCAGGACTGGAGATCTATGGTCGCATCGTTGACCCTTGTCCTGCCCCTGTCTCTCTCAACAGACCGAACTAGAGCTT; details: 5 mM KCl, 1 mM MgCl2, 1 mM CaCl2 added; HBS-P+ buffer, 25 °C
# [6] = tested on: Dm-reference-based-random-after-selection-5 (DNA, other, HFNAP: side-chain on 5' nucleobase of each coding trinucleotide, positions 19,22,25,...,61 (codon key Figure 1B)) GAAAGCAGGACTGGAGATCATTTCCTCCCTTATCGATAATCTCCTTTTTTATACTGCTTTTTCCAGACCGAACTAGAGCTT; details: 5 mM KCl, 1 mM MgCl2, 1 mM CaCl2 added; HBS-P+ buffer, 25 °C
smiles,measurement,setting,value
COc1cccc2c1C(=O)c1c(O)c3c(c(O)c1C2=O)C[C@@](O)(C(C)=O)C[C@@H]3O[C@H]1C[C@H](N)[C@H](O)[C@H](C)O1,Kd,[1],0.0129 ± 0.0015 µM
same,Kd,[2],1.98 ± 0.07 µM
same,Kd,[3],0.00616 ± 0.0034 µM
same,Kd,[4],0.0155 ± 0.0013 µM
same,Kd,[5],0.00477 ± 0.001 µM
same,Kd,[6],119.7 ± 9.3 µM

# From article PMC9352670 (2022)
